# From the supplement of paper PMC10307832
# How the values were obtained:
# Assay in all cases: relative viability (nuclei count vs DMSO), 5 days (fraction); higher = more cells survive
# NCI-H1975 = test system: NCI-H1975
# Outline: (§1)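 Lung cancer cell lines in 1536-well plates were dosed by pin tool the day after seeding, either with one drug alone or with a fixed anchor-drug dose plus five library-drug doses (not always all listed) in √10 steps. After 5 days, cells were fixed and their nuclei stained in one step (final 0.05% Triton X-100, 1% formaldehyde, 1 ug/ml Hoechst), then counted on 4× images. Relative viability is the nuclei count in treated wells divided by that in vehicle wells. Values are medians of duplicate plates.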
# HCC-827 = test system: HCC-827
# Outline: as §1
# NCI-H23 = test system: NCI-H23
# Outline: as §1
# HARA = test system: HARA
# Outline: as §1
# 201T = test system: 201T
# Outline: as §1
# HCC-15 = test system: HCC-15
# Outline: as §1
# A-427 = test system: A-427
# Outline: as §1
# NCI-H358 = test system: NCI-H358
# Outline: as §1
# NCI-H838 = test system: NCI-H838
# Outline: as §1
# BEN = test system: BEN
# Outline: as §1
# COR-L23 = test system: COR-L23
# Outline: as §1
# NCI-H1650 = test system: NCI-H1650
# Outline: as §1
# NCI-H1792 = test system: NCI-H1792
# Outline: as §1
# NCI-H650 = test system: NCI-H650
# Outline: as §1
# HCC-44 = test system: HCC-44
# Outline: as §1
# NCI-H1437 = test system: NCI-H1437
# Outline: as §1
# NCI-H441 = test system: NCI-H441
# Outline: as §1
# NCI-H596 = test system: NCI-H596
# Outline: as §1
# EKVX = test system: EKVX
# Outline: as §1
# SK-MES-1 = test system: SK-MES-1
# Outline: as §1
smiles,measurement,setting,value
COc1cc2nccc(Oc3ccc(NC(=O)Nc4cc(C)on4)c(Cl)c3)c2cc1OC [Tivozanib] + CS(=O)(=O)N1CCN(Cc2cc3nc(-c4cccc5[nH]ncc45)nc(N4CCOCC4)c3s2)CC1 [Pictilisib] (partner 1 µM),relative viability,NCI-H1975; first compound 0.005 µM,0.278
same,relative viability,NCI-H1975; first compound 0.01581 µM,0.277
same,relative viability,NCI-H1975; first compound 0.05 µM,0.271
same,relative viability,NCI-H1975; first compound 0.1581 µM,0.234
same,relative viability,NCI-H1975; first compound 0.5 µM,0.275
same,relative viability,HCC-827; first compound 0.005 µM,0.864
same,relative viability,HCC-827; first compound 0.01581 µM,0.924
same,relative viability,HCC-827; first compound 0.05 µM,1.01
same,relative viability,HCC-827; first compound 0.1581 µM,1.24
same,relative viability,HCC-827; first compound 0.5 µM,0.982
same,relative viability,NCI-H23; first compound 0.005 µM,0.443
same,relative viability,NCI-H23; first compound 0.01581 µM,0.471
same,relative viability,NCI-H23; first compound 0.05 µM,0.409
same,relative viability,NCI-H23; first compound 0.1581 µM,0.319
same,relative viability,NCI-H23; first compound 0.5 µM,0.49
same,relative viability,HARA; first compound 0.005 µM,0.395
same,relative viability,HARA; first compound 0.01581 µM,0.312
same,relative viability,HARA; first compound 0.05 µM,0.485
same,relative viability,HARA; first compound 0.1581 µM,0.309
same,relative viability,HARA; first compound 0.5 µM,0.603
same,relative viability,201T; first compound 0.005 µM,0.377
same,relative viability,201T; first compound 0.01581 µM,0.69
same,relative viability,201T; first compound 0.05 µM,0.686
same,relative viability,201T; first compound 0.1581 µM,0.588
same,relative viability,201T; first compound 0.5 µM,0.632
same,relative viability,HCC-15; first compound 0.005 µM,0.631
same,relative viability,HCC-15; first compound 0.01581 µM,0.641
same,relative viability,HCC-15; first compound 0.05 µM,0.719
same,relative viability,HCC-15; first compound 0.1581 µM,0.588
same,relative viability,HCC-15; first compound 0.5 µM,0.717
same,relative viability,A-427; first compound 0.005 µM,0.656
same,relative viability,A-427; first compound 0.01581 µM,0.746
same,relative viability,A-427; first compound 0.05 µM,0.705
same,relative viability,A-427; first compound 0.1581 µM,0.511
same,relative viability,A-427; first compound 0.5 µM,0.71
same,relative viability,NCI-H358; first compound 0.005 µM,0.345
same,relative viability,NCI-H358; first compound 0.01581 µM,0.332
same,relative viability,NCI-H358; first compound 0.05 µM,0.386
same,relative viability,NCI-H358; first compound 0.1581 µM,0.254
same,relative viability,NCI-H358; first compound 0.5 µM,0.367
same,relative viability,NCI-H838; first compound 0.005 µM,0.443
same,relative viability,NCI-H838; first compound 0.01581 µM,0.498
same,relative viability,NCI-H838; first compound 0.05 µM,0.453
same,relative viability,NCI-H838; first compound 0.5 µM,0.501
same,relative viability,BEN; first compound 0.005 µM,0.61
same,relative viability,BEN; first compound 0.01581 µM,0.541
same,relative viability,BEN; first compound 0.05 µM,0.603
same,relative viability,BEN; first compound 0.5 µM,0.505
same,relative viability,COR-L23; first compound 0.005 µM,0.733
same,relative viability,COR-L23; first compound 0.01581 µM,0.74
same,relative viability,COR-L23; first compound 0.05 µM,0.917
same,relative viability,COR-L23; first compound 0.1581 µM,0.575
same,relative viability,COR-L23; first compound 0.5 µM,0.565
same,relative viability,NCI-H1650; first compound 0.005 µM,0.561
same,relative viability,NCI-H1650; first compound 0.01581 µM,0.594
same,relative viability,NCI-H1650; first compound 0.05 µM,0.621
same,relative viability,NCI-H1650; first compound 0.1581 µM,0.558
same,relative viability,NCI-H1650; first compound 0.5 µM,0.498
same,relative viability,NCI-H1792; first compound 0.005 µM,0.248
same,relative viability,NCI-H1792; first compound 0.01581 µM,0.27
same,relative viability,NCI-H1792; first compound 0.05 µM,0.289
same,relative viability,NCI-H1792; first compound 0.1581 µM,0.283
same,relative viability,NCI-H1792; first compound 0.5 µM,0.274
same,relative viability,NCI-H650; first compound 0.005 µM,0.674
same,relative viability,NCI-H650; first compound 0.01581 µM,0.866
same,relative viability,NCI-H650; first compound 0.05 µM,0.771
same,relative viability,NCI-H650; first compound 0.1581 µM,0.78
same,relative viability,NCI-H650; first compound 0.5 µM,0.77
same,relative viability,HCC-44; first compound 0.005 µM,0.617
same,relative viability,HCC-44; first compound 0.01581 µM,0.471
same,relative viability,HCC-44; first compound 0.05 µM,0.718
same,relative viability,HCC-44; first compound 0.1581 µM,0.488
same,relative viability,HCC-44; first compound 0.5 µM,0.654
same,relative viability,NCI-H1437; first compound 0.005 µM,0.347
same,relative viability,NCI-H1437; first compound 0.01581 µM,0.463
same,relative viability,NCI-H1437; first compound 0.05 µM,0.401
same,relative viability,NCI-H1437; first compound 0.1581 µM,0.177
same,relative viability,NCI-H1437; first compound 0.5 µM,0.52
same,relative viability,NCI-H441; first compound 0.005 µM,0.571
same,relative viability,NCI-H441; first compound 0.01581 µM,0.511
same,relative viability,NCI-H441; first compound 0.05 µM,0.536
same,relative viability,NCI-H441; first compound 0.1581 µM,0.484
same,relative viability,NCI-H441; first compound 0.5 µM,0.31
same,relative viability,NCI-H596; first compound 0.005 µM,0.28
same,relative viability,NCI-H596; first compound 0.01581 µM,0.364
same,relative viability,NCI-H596; first compound 0.05 µM,0.427
same,relative viability,NCI-H596; first compound 0.1581 µM,0.411
same,relative viability,NCI-H596; first compound 0.5 µM,0.326
same,relative viability,EKVX; first compound 0.005 µM,0.392
same,relative viability,EKVX; first compound 0.01581 µM,0.426
same,relative viability,EKVX; first compound 0.05 µM,0.535
same,relative viability,EKVX; first compound 0.1581 µM,0.394
same,relative viability,EKVX; first compound 0.5 µM,0.497
same,relative viability,SK-MES-1; first compound 0.005 µM,0.325
same,relative viability,SK-MES-1; first compound 0.01581 µM,0.34
same,relative viability,SK-MES-1; first compound 0.05 µM,0.416
same,relative viability,SK-MES-1; first compound 0.1581 µM,0.289
same,relative viability,SK-MES-1; first compound 0.5 µM,0.363
